Consider two compounds from the NIST ThermoML archive (doi:10.1016/j.jct.2010.04.027).

± gives the expanded uncertainty stated by the source.

The nature of the data set: molar enthalpy of vaporization or sublimation. To be noted: 298.15 K; Crystal; Static calorimetry.

As for `O=C1c2ccccc2Cc2ccccc21` [9(10H)-anthracenone], the molar enthalpy amounted to 25.5 ± 0.86 kcal/mol.

In the case of `c1ccc2c(c1)Cc1ccccc1O2` [10H-9-oxaanthracene], the molar enthalpy is 22 ± 0.526 kcal/mol.
